Assay [1] addresses unphosphorylated c-KIT kinase (uKIT, Seq. ID no. 2) (Homo sapiens (Human), UniProt P10721). Briefly: uKit kinase assay (coupled pyruvate kinase/lactate dehydrogenase). Conditions: enzymatic assay, ATP 2000 μM. The format is biochemical. An outline of the steps:
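The read-out was a continuous PK/LDH-coupled decrease in NADH absorbance at 340 nm, monitored at 30 °C over 4 h. IC50 came from % inhibition based on rates at 3–4 h. The GST-tagged unphosphorylated KIT (12 nM) was used with polyE4Y substrate, 2000 μM ATP and 10 mM Mg2+ at pH 7.5, with serially diluted compound.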

The subject of a further assay is osteoclast precursors. Briefly: Osteoclast tartrate-resistant acid phosphatase assay. Type of assay: cell-based. Conditions: Osteoclast, 7-14 days, RANKL and M-CSF.
The target in assay [2] is unphosphorylated c-FMS kinase (uFMS, Seq. ID no. 1) (Homo sapiens (Human), UniProt P07333). Briefly: uFMS kinase assay (ADP production coupled to pyruvate kinase/lactate dehydrogenase). Conditions: enzymatic assay, ATP 500 μM; read-out: uFMS. Type of assay: biochemical. An outline of the steps: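 Unphosphorylated FMS (10 nM) with polyE4Y 1 mg/mL and 500 μM ATP in 90 mM Tris pH 7.5, 10 mM MgCl2, 0.2% octyl-glucoside, 1% DMSO. ADP formation was coupled via pyruvate kinase/LDH to NADH oxidation, followed at A340 for 4 h at 30° C.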

Assay [3] concerns the target unphosphorylated PDGFRβ kinase (uPDGFRβ, Seq. ID No. 3) (Homo sapiens (Human), UniProt P09619). Briefly: Unphosphorylated PDGFRβ kinase assay (coupled pyruvate kinase/lactate dehydrogenase). Conditions: enzymatic assay, ATP 500 μM. The format is biochemical. The method, then:
Unphosphorylated PDGFRβ (uPDGFRβ) Kinase (Seq. ID No. 3) Assay
Activity of unphosphorylated PDGFRβ kinase (uPDGFRβ, Seq. ID No. 3) was determined by following the production of ADP from the kinase reaction with ATP and poly E4Y as substrates through coupling with the pyruvate kinase/lactate dehydrogenase system (e.g., Schindler et al. Science (2000) 289: 1938-1942). In this assay, the oxidation of NADH (thus the decrease at A340 nm) was continuously monitored spectrophometrically. The reaction mixture (100 μL) contained PDGFRβ (DeCode, 15.7 nM), polyE4Y (2.5 mg/mL), MgCl2 (10 mM), pyruvate kinase (4 units), lactate dehydrogenase (0.7 units), phosphoenol pyruvate (1 mM) and NADH (0.28 mM) and ATP (500 μM) in a 90 mM Tris buffer containing 0.2% octyl-glucoside and 1% DMSO, at pH 7.5. The inhibition reaction was started by mixing serial diluted test compound with the above reaction mixture. The absorption at 340 nm was monitored continuously for 4 h at 30° C. on a Polarstar Optima or Synergy 2 plate reader. The reaction rate was calculated using the 1.5 to 2.5 h time frame. Percent inhibition was obtained by comparison of reaction rate with that of a control (i.e., with no test compound). IC50 values were calculated from a series of percent inhibition values determined at a range of inhibitor concentrations using software routines as implemented in the GraphPad Prism software package.
uPDGFRβ Kinase Sequence (Residues 557-1106) Used for Screening (Seq ID No. 3)

A further assay concerns M-NFS-60 cells. Briefly: M-NFS-60 cell proliferation assay (resazurin). Type of assay: cell-based. Conditions: 67 h incubation. The procedure, abridged: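 Cells kept in medium containing 20 ng/mL mouse recombinant M-CSF. Fluorescence was read at ex 540/em 600 nm, and IC50 was fitted from percent inhibition across a range of inhibitor concentrations.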

Sequence of unphosphorylated PDGFRβ kinase (uPDGFRβ, Seq. ID No. 3) (P09619 557-1106): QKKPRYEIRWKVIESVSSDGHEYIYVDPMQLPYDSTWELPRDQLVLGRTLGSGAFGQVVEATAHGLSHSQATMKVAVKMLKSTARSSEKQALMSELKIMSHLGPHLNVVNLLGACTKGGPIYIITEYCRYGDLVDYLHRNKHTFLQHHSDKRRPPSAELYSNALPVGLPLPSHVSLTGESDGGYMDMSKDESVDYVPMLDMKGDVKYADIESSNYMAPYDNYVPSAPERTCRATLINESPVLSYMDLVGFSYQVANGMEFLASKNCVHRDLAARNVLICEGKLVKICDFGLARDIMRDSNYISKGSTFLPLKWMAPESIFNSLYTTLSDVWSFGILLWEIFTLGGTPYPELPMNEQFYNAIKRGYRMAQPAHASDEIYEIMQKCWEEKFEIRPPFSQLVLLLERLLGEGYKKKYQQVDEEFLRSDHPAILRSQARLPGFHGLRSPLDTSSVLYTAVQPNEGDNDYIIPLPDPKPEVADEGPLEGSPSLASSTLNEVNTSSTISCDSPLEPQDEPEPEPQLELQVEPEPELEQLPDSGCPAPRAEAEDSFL
Sequence of unphosphorylated c-KIT kinase (uKIT, Seq. ID no. 2) (P10721 other isoform, or with tags, fused parts or gaps): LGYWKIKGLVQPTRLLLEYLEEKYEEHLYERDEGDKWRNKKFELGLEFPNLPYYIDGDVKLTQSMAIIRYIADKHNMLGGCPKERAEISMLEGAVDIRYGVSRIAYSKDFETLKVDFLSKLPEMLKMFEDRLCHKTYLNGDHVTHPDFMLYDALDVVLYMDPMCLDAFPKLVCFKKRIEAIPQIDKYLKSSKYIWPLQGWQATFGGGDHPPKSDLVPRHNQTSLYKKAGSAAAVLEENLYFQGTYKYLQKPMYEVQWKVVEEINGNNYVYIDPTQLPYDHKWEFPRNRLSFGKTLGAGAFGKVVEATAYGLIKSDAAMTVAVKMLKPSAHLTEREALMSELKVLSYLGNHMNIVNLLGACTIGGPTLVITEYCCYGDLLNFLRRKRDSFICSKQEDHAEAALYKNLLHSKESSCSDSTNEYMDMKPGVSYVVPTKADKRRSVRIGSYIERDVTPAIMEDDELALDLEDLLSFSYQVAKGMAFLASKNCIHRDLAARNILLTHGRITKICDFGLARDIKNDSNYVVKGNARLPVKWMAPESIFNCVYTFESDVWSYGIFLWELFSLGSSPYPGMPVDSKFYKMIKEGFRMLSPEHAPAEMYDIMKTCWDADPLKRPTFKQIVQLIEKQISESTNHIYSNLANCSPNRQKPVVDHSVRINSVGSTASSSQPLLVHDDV
Sequence of unphosphorylated c-FMS kinase (uFMS, Seq. ID no. 1) (P07333 538-972): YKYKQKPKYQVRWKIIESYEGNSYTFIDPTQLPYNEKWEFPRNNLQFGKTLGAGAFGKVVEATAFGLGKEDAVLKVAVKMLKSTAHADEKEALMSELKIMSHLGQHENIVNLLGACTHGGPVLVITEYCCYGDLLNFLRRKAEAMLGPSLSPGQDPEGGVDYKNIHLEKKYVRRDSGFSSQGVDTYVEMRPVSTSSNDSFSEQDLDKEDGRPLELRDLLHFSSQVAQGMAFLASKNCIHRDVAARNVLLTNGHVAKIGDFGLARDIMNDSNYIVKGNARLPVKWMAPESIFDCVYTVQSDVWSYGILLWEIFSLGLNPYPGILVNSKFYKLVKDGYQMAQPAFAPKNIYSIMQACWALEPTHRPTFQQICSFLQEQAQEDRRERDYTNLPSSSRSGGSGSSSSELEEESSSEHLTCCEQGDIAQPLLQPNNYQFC

Consider `CCN1CCN(C(=O)Nc2ccc(Oc3ccnc(-c4ccc(N5CCN(C)CC5)cc4)c3)c(C)n2)C1=O` [Example 68, 3-ethyl-N-(6-methyl-5-((2-(4-(4-methylpiperazin-1-yl)phenyl)pyridin-4-yl)oxy)pyridin-2-yl)-2-oxoimidazolidine-1-carboxamide], for which the IC50 in assay [1] was 10 to 100 nM; in the assay on osteoclast precursors, less than 10 nM; in assay [2] it was less than 10 nM; in assay [3] it was greater than 1000 nM; with M-NFS-60 cells, 10 to 100 nM.
`CCN1CCN(C(=O)Nc2ccc(Oc3ccnc(-c4cnc(C)s4)c3)cn2)C1=O` [Example 69, 3-ethyl-N-(5-((2-(2-methylthiazol-5-yl)pyridin-4-yl)oxy)pyridin-2-yl)-2-oxoimidazolidine-1-carboxamide]: the IC50 in assay [1] was 10 to 100 nM; in the assay on osteoclast precursors, 10 to 100 nM; in assay [2], 10 to 100 nM; in assay [3] it was greater than 1000 nM; with M-NFS-60 cells it was 100 to 1000 nM.
Consider `CCN1CCN(C(=O)Nc2ccc(Oc3ccnc(-c4cnc(C)s4)c3)c(C)n2)C1=O` [Example 70, 3-ethyl-N-(6-methyl-5-((2-(2-methylthiazol-5-yl)pyridin-4-yl)oxy)pyridin-2-yl)-2-oxoimidazolidine-1-carboxamide], for which the IC50 in assay [1] was 100 to 1000 nM; with osteoclast precursors, 10 to 100 nM; in assay [2] it was 10 to 100 nM; in assay [3] it was greater than 1000 nM; with M-NFS-60 cells it was 100 to 1000 nM.
Take `Cc1cc(NC(=O)N2CCN(C3CC3)C2=O)nc(C)c1Oc1ccnc(-c2cnn(C)c2)c1` [Example 71, 3-cyclopropyl-N-(4,6-dimethyl-5-((2-(1-methyl-1H-pyrazol-4-yl)pyridin-4-yl)oxy)pyridin-2-yl)-2-oxoimidazolidine-1-carboxamide]: the IC50 was 10 to 100 nM in assay [1]; 10 to 100 nM in the assay with osteoclast precursors; less than 10 nM in assay [2]; 100 to 1000 nM in assay [3]; 10 to 100 nM in the assay with M-NFS-60 cells.
Regarding `Cc1cc(NC(=O)N2CCN(C3CCCC3)C2=O)nc(C)c1Oc1ccnc(-c2cnn(C)c2)c1` [Example 72, 3-cyclopentyl-N-(4,6-dimethyl-5-((2-(1-methyl-1H-pyrazol-4-yl)pyridin-4-yl)oxy)pyridin-2-yl)-2-oxoimidazolidine-1-carboxamide], the IC50 in assay [1] was less than 10 nM; in the assay on osteoclast precursors, less than 10 nM; in assay [2], less than 10 nM; in assay [3] it was 10 to 100 nM; in the assay with M-NFS-60 cells, less than 10 nM.
With `COCCN1CCN(C(=O)Nc2ccc(Oc3ccnc(-c4ccc(C5CCN(C)CC5)cc4)c3)c(C)n2)C1=O` [Example 80, 3-(2-methoxyethyl)-N-(6-methyl-5-((2-(4-(1-methylpiperidin-4-yl)phenyl)pyridin-4-yl)oxy)pyridin-2-yl)-2-oxoimidazolidine-1-carboxamide], the IC50 in assay [1] was 100 to 1000 nM; in the assay with osteoclast precursors, 10 to 100 nM; in assay [2], less than 10 nM; in assay [3], greater than 1000 nM; in the assay on M-NFS-60 cells, 10 to 100 nM.
`Cn1cnc(-c2cc(Oc3ccc(NC(=O)N4CCN(C5CCOCC5)C4=O)nc3)ccn2)c1` [Example 83, N-(5-((2-(1-methyl-1H-imidazol-4-yl)pyridin-4-yl)oxy)pyridin-2-yl)-2-oxo-3-(tetrahydro-2H-pyran-4-yl)imidazolidine-1-carboxamide]: the IC50 in assay [1] was 10 to 100 nM; in the assay with osteoclast precursors, 10 to 100 nM; in assay [2] it was 10 to 100 nM; in assay [3], 100 to 1000 nM; in the assay with M-NFS-60 cells it was 10 to 100 nM.
`Cn1cnc(-c2cc(Oc3ccc(NC(=O)N4CCN(CC(F)(F)F)C4=O)nc3)ccn2)c1` [Example 84, N-(5-((2-(1-methyl-1H-imidazol-4-yl)pyridin-4-yl)oxy)pyridin-2-yl)-2-oxo-3-(2,2,2-trifluoroethyl)imidazolidine-1-carboxamide]: the IC50 in assay [1] was 10 to 100 nM; in the assay on osteoclast precursors it was 10 to 100 nM; in assay [2] it was 10 to 100 nM; in assay [3] it was greater than 1000 nM; with M-NFS-60 cells it was 10 to 100 nM.
Regarding `Cc1nc(NC(=O)N2CCN(C3CC3)C2=O)ccc1Oc1ccnc(-c2ccc(C3CCN(C)CC3)cc2)c1` [Example 86, 3-cyclopropyl-N-(6-methyl-5-((2-(4-(1-methylpiperidin-4-yl)phenyl)pyridin-4-yl)oxy)pyridin-2-yl)-2-oxoimidazolidine-1-carboxamide], the IC50 was 10 to 100 nM in assay [1]; less than 10 nM in the assay with osteoclast precursors; less than 10 nM in assay [2]; greater than 1000 nM in assay [3]; less than 10 nM with M-NFS-60 cells.
Regarding `Cc1cn(-c2cc(Oc3cnc(NC(=O)N4CCN(C)C4=O)cc3C)ccn2)cn1` [Example 89, 3-methyl-N-(4-methyl-5-((2-(4-methyl-1H-imidazol-1-yl)pyridin-4-yl)oxy)pyridin-2-yl)-2-oxoimidazolidine-1-carboxamide], the IC50 in assay [1] was 100 to 1000 nM; with osteoclast precursors, 100 to 1000 nM; in assay [2] it was 100 to 1000 nM; in assay [3], greater than 1000 nM; with M-NFS-60 cells, greater than 1000 nM.
As for `Cn1cc(-c2cc(Oc3cc(F)c(NC(=O)N4CCN(C5CCOCC5)C4=O)cc3Br)ccn2)cn1` [Example 109, N-(5-bromo-2-fluoro-4-((2-(1-methyl-1H-pyrazol-4-yl)pyridin-4-yl)oxy)phenyl)-2-oxo-3-(tetrahydro-2H-pyran-4-yl)imidazolidine-1-carboxamide], the IC50 in assay [1] was 10 to 100 nM; in the assay on osteoclast precursors, 100 to 1000 nM; in assay [2] it was 10 to 100 nM; in assay [3] it was greater than 1000 nM; in the assay with M-NFS-60 cells, 10 to 100 nM.
Regarding `CCN1CCN(C(=O)Nc2ccc(Oc3ccnc(C(=O)NC)c3)cn2)C1=O` [Example 115, 4-((6-(3-ethyl-2-oxoimidazolidine-1-carboxamido)pyridin-3-yl)oxy)-N-methylpicolinamide], the IC50 in assay [1] was 100 to 1000 nM; in the assay on osteoclast precursors, 10 to 100 nM; in assay [2] it was 100 to 1000 nM; in assay [3], greater than 1000 nM; in the assay with M-NFS-60 cells, greater than 1000 nM.
As for `COCCN1CCN(C(=O)Nc2ccc(Oc3ccnc(NC(=O)N(C)C)c3)cn2)C1=O` [Example 116, N-(5-((2-(3,3-dimethylureido)pyridin-4-yl)oxy)pyridin-2-yl)-3-(2-methoxyethyl)-2-oxoimidazolidine-1-carboxamide], the IC50 in assay [1] was 10 to 100 nM; with osteoclast precursors, 10 to 100 nM; in assay [2], 10 to 100 nM; in assay [3], greater than 1000 nM; with M-NFS-60 cells it was 100 to 1000 nM.
As to `CC(=O)Nc1cc(Oc2ccc(NC(=O)N3CCN(C4CCOCC4)C3=O)nc2C)ccn1` [Example 121, N-(5-((2-acetamidopyridin-4-yl)oxy)-6-methylpyridin-2-yl)-2-oxo-3-(tetrahydro-2H-pyran-4-yl)imidazolidine-1-carboxamide], the IC50 is 100 to 1000 nM in assay [1]; 100 to 1000 nM in the assay on osteoclast precursors; 10 to 100 nM in assay [2]; 100 to 1000 nM in assay [3]; 100 to 1000 nM with M-NFS-60 cells.
`CCN1CCN(C(=O)Nc2ccc(Oc3ccnc(NC(C)=O)c3)c(C)n2)C1=O` [Example 122, N-(5-((2-acetamidopyridin-4-yl)oxy)-6-methylpyridin-2-yl)-3-ethyl-2-oxoimidazolidine-1-carboxamide]: the IC50 in assay [1] was greater than 1000 nM; in the assay on osteoclast precursors, 100 to 1000 nM; in assay [2], 10 to 100 nM; in assay [3], greater than 1000 nM; in the assay with M-NFS-60 cells, 100 to 1000 nM.

These data come from patent US9133183B2, “Imidazolidinones and analogs exhibiting anti-cancer and anti-proliferative activities” (Deciphera Pharmaceuticals, LLC, priority 2013, dated 2015).
